Data published in the kinase profiling compilation of Christmann-Franck et al. (2016).

Tests used:
Assay in all cases: radiometric filter-binding kinase assay, Kinase HotSpot
Details in all cases: compound 0.5 µM; ATP 10 µM
AKT3 (human) = AKT3 (human) (UniProt Q9Y243)
AURKA (human) = AURKA (human) (UniProt O14965)
AURKB (human) = AURKB (human) (UniProt Q96GD4)
BLK (human) = BLK (human) (UniProt P51451)
CAMKK1 (human) = CAMKK1 (human) (UniProt Q8N5S9)
CDC42BPB (human) = CDC42BPB (human) (UniProt Q9Y5S2)
CDK5 CDK5R1 p25 (human) = CDK5 CDK5R1 p25 (human) (UniProt Q00535+Q15078)
Chain of CDK5 CDK5R1 p25 (human) (Q00535 whole entry, looked up): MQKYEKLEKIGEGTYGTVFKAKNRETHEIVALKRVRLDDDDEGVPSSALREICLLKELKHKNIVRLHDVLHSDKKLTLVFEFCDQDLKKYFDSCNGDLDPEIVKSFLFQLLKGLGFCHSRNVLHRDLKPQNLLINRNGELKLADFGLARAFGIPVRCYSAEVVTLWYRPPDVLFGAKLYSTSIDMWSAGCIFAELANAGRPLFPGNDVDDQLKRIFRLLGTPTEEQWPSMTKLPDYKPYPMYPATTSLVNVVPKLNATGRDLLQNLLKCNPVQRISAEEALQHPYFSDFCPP
Chain of CDK5 CDK5R1 p25 (human) (Q15078 whole entry, looked up): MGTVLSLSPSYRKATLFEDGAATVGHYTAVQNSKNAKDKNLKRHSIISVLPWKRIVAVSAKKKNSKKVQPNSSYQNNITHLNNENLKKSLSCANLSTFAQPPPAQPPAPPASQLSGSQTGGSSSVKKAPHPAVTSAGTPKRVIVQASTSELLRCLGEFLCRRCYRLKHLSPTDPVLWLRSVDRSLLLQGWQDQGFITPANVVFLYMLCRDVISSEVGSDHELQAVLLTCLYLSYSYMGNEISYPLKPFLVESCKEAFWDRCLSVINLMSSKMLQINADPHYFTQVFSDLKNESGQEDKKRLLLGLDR

CSNK1A1 (human) = CSNK1A1 (human) (UniProt P48729)
CSNK1D (human) = CSNK1D (human) (UniProt P48730)
CSNK1E (human) = CSNK1E (human) (UniProt P49674)
DAPK1 (human) = DAPK1 (human) (UniProt P53355)
DMPK (human) = DMPK (human) (UniProt Q09013)
DYRK1A (human) = DYRK1A (human) (UniProt Q13627)
EPHB2 (human) = EPHB2 (human) (UniProt P29323)
FES (human) = FES (human) (UniProt P07332)
Chain of FES (human) (P07332 whole entry, looked up): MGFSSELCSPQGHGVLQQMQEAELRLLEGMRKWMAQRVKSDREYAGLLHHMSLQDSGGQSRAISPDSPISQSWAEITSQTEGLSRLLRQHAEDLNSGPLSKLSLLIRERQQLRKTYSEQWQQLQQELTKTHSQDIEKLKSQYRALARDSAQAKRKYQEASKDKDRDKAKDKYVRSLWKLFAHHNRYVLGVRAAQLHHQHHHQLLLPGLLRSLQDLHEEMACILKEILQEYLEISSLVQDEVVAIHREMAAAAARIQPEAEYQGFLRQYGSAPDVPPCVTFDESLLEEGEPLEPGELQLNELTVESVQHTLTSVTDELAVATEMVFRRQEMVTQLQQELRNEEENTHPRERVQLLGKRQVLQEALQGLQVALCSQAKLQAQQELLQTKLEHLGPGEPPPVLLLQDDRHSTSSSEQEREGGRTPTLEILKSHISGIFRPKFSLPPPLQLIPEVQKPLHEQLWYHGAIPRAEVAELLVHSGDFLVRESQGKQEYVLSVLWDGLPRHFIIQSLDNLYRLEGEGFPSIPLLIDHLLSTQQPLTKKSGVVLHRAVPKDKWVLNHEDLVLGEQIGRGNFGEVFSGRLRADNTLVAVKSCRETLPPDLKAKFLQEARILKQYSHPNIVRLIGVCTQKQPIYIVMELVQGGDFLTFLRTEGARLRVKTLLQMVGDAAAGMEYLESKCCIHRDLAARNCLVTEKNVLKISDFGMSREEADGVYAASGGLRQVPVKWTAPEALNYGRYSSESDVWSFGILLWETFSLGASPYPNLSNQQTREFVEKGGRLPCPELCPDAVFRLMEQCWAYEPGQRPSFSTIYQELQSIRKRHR

FGR (human) = FGR (human) (UniProt P09769)
FLT1 (human) = FLT1 (human) (UniProt P17948)
GSK3A (human) = GSK3A (human) (UniProt P49840)
HIPK2 (human) = HIPK2 (human) (UniProt Q9H2X6)
INSRR (human) = INSRR (human) (UniProt P14616)
[1] = target: JAK1 JH1 catalytic (human) (UniProt P23458)
JAK2 JH1 JH2 (human) = JAK2 JH1 JH2 (human) (UniProt O60674)
MAP2K2 (human) = MAP2K2 (human) (UniProt P36507)
MAP3K11 (human) = MAP3K11 (human) (UniProt Q16584)
MAP3K2 (human) = MAP3K2 (human) (UniProt Q9Y2U5)
Chain of MAP3K2 (human) (Q9Y2U5 whole entry, looked up): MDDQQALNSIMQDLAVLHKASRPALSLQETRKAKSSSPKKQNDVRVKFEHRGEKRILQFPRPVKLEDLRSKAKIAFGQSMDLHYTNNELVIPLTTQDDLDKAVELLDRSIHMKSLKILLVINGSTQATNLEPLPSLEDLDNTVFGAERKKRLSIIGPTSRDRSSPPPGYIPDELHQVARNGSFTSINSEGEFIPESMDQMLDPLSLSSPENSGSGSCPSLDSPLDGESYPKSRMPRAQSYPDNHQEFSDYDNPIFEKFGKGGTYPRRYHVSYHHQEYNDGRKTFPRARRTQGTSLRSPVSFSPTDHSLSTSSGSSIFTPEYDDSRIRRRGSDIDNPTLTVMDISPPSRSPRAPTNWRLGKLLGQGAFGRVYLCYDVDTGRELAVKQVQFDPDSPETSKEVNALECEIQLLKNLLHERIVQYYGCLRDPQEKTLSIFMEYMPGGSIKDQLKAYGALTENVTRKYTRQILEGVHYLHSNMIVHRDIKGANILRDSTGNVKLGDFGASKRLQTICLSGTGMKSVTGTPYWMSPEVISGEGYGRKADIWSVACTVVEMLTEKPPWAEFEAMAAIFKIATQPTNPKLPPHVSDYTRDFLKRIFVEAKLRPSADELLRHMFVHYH

MAPK11 (human) = MAPK11 (human) (UniProt Q15759)
MET (human) = MET (human) (UniProt P08581)
Chain of MET (human) (P08581 whole entry, looked up): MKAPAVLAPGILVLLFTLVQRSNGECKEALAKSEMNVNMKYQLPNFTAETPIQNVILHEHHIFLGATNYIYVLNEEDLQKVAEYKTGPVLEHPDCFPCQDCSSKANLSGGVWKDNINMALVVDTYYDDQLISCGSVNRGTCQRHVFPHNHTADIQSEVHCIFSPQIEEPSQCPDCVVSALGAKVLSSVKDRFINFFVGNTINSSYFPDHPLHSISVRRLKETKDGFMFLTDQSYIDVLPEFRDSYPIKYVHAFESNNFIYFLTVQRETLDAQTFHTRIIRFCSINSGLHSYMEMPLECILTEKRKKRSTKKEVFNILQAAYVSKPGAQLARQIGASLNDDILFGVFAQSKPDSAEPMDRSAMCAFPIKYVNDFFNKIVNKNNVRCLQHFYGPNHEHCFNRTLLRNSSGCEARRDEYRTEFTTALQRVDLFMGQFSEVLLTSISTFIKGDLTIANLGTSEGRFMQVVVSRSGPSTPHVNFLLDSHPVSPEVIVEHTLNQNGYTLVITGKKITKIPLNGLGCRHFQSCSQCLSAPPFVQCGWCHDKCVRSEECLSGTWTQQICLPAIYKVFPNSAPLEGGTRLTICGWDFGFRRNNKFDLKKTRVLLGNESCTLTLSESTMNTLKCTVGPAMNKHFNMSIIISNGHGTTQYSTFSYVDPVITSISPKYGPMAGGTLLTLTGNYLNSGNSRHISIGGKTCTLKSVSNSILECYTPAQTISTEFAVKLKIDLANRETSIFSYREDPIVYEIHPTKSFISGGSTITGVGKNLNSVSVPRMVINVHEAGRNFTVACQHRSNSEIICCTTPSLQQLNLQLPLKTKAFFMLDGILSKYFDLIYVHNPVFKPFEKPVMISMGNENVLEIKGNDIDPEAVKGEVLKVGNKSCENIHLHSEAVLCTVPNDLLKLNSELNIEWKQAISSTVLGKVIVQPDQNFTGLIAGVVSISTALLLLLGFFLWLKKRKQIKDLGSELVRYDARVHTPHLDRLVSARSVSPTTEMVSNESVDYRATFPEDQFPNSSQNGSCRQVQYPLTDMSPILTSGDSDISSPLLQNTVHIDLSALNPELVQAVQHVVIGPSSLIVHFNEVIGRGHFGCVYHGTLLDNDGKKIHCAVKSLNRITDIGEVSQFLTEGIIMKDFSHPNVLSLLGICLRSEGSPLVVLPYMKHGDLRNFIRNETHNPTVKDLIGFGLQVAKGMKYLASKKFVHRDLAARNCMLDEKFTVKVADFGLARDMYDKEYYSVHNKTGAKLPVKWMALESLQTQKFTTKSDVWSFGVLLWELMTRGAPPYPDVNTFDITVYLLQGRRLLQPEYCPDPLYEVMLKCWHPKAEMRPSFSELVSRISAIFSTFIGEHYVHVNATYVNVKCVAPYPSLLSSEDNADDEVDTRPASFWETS

MLTK (human) = MLTK (human) (UniProt Q9NYL2)
MYLK2 (human) = MYLK2 (human) (UniProt Q9H1R3)
Chain of MYLK2 (human) (Q9H1R3 whole entry, looked up): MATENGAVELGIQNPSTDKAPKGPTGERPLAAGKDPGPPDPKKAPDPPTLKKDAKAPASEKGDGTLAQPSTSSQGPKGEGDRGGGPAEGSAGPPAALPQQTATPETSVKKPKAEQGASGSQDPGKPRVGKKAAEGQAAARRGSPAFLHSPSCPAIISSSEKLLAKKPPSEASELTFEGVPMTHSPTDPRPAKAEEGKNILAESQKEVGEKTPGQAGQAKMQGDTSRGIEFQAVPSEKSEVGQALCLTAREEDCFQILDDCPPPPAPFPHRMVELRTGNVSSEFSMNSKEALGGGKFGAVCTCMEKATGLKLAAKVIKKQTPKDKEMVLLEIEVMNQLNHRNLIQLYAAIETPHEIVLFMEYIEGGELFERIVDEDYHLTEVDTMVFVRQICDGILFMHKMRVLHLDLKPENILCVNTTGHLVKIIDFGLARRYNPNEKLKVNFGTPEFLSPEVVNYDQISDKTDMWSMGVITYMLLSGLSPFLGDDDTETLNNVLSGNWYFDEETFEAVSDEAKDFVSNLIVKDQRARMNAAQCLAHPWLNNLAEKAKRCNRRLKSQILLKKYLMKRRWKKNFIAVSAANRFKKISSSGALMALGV

OXSR1 (human) = OXSR1 (human) (UniProt O95747)
PDGFRB (human) = PDGFRB (human) (UniProt P09619)
PIM2 (human) = PIM2 (human) (UniProt Q9P1W9)
PRKCD (human) = PRKCD (human) (UniProt Q05655)
PRKG2 (human) = PRKG2 (human) (UniProt Q13237)
PTK2 (human) = PTK2 (human) (UniProt Q05397)
RAF1 (human) = RAF1 (human) (UniProt P04049)
RPS6KA2 KD1 KD2 (human) = RPS6KA2 KD1 KD2 (human) (UniProt Q15349)
SGK3 (human) = SGK3 (human) (UniProt Q96BR1)
SRC (human) = SRC (human) (UniProt P12931)
STK4 (human) = STK4 (human) (UniProt Q13043)
Chain of STK4 (human) (Q13043 whole entry, looked up): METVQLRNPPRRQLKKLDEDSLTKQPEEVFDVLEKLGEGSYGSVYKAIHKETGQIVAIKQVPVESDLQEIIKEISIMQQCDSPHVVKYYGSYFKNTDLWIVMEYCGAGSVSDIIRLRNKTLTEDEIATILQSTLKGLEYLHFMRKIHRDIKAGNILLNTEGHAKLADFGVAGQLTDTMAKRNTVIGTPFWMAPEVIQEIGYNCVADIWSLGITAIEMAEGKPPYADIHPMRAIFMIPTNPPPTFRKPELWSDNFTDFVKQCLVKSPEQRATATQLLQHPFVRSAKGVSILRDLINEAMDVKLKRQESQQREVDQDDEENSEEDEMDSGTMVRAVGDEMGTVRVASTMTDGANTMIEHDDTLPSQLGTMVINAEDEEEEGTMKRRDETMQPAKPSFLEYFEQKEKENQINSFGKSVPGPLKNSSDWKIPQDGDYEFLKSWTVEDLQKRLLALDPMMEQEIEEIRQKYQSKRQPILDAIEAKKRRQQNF

TGFBR1 (human) = TGFBR1 (human) (UniProt P36897)
YES1 (human) = YES1 (human) (UniProt P07947)

Chain of CAMKK1 (human) (Q8N5S9 whole entry, looked up): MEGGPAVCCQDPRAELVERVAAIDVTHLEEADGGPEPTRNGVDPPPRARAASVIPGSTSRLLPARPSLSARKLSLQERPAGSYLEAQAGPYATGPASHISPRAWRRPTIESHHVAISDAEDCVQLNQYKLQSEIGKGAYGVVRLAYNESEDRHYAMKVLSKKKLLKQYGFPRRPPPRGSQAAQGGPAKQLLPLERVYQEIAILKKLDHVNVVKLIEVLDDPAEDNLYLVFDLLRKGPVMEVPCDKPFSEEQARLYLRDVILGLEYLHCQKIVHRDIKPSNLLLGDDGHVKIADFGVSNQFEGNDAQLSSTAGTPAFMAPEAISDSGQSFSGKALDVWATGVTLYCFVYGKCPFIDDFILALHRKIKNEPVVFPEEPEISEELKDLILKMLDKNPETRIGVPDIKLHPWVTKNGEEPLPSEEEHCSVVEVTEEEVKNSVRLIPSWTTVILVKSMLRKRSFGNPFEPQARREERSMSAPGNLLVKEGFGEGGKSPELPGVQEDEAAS

COc1ccc(C(=O)Nc2sc3c(c2C(N)=O)CCCC3)cc1OC
residual activity (AKT3 (human)): 102%
residual activity (AURKA (human)): 97.9%
residual activity (AURKB (human)): 96.2%
residual activity (BLK (human)): 102%
residual activity (CAMKK1 (human)): 125%
residual activity (CDC42BPB (human)): 94.5%
residual activity (CDK5 CDK5R1 p25 (human)): 94.2%
residual activity (CSNK1A1 (human)): 108%
residual activity (CSNK1D (human)): 103%
residual activity (CSNK1E (human)): 94%
residual activity (DAPK1 (human)): 78.2%
residual activity (DMPK (human)): 108%
residual activity (DYRK1A (human)): 97.4%
residual activity (EPHB2 (human)): 73.5%
residual activity (FES (human)): 102%
residual activity (FGR (human)): 90%
residual activity (FLT1 (human)): 99.1%
residual activity (GSK3A (human)): 83.6%
residual activity (HIPK2 (human)): 107%
residual activity (INSRR (human)): 99.7%
residual activity [1]: 104%
residual activity (JAK2 JH1 JH2 (human)): 99.9%
residual activity (MAP2K2 (human)): 95.3%
residual activity (MAP3K11 (human)): 96.8%
residual activity (MAP3K2 (human)): 105%
residual activity (MAPK11 (human)): 104%
residual activity (MET (human)): 82.8%
residual activity (MLTK (human)): 93.8%
residual activity (MYLK2 (human)): 94.4%
residual activity (OXSR1 (human)): 99.9%
residual activity (PDGFRB (human)): 90.9%
residual activity (PIM2 (human)): 98.5%
residual activity (PRKCD (human)): 81.8%
residual activity (PRKG2 (human)): 104%
residual activity (PTK2 (human)): 116%
residual activity (RAF1 (human)): 94.8%
residual activity (RPS6KA2 KD1 KD2 (human)): 112%
residual activity (SGK3 (human)): 103%
residual activity (SRC (human)): 100%
residual activity (STK4 (human)): 104%
residual activity (TGFBR1 (human)): 95.8%
residual activity (YES1 (human)): 88.3%

O=C(c1cc2cc(O)ccc2[nH]1)c1cc2cc(O)ccc2[nH]1
residual activity (AKT3 (human)): 102%
residual activity (AURKA (human)): 71.6%
residual activity (AURKB (human)): 24.2%
residual activity (BLK (human)): 49.7%
residual activity (CAMKK1 (human)): 63.3%
residual activity (CDC42BPB (human)): 96.2%
residual activity (CDK5 CDK5R1 p25 (human)): 52.6%
residual activity (CSNK1A1 (human)): 96.3%
residual activity (CSNK1D (human)): 92.5%
residual activity (CSNK1E (human)): 88.4%
residual activity (DAPK1 (human)): 101%
residual activity (DMPK (human)): 96.9%
residual activity (DYRK1A (human)): 103%
residual activity (EPHB2 (human)): 76.7%
residual activity (FES (human)): 95.3%
residual activity (FGR (human)): 12.7%
residual activity (FLT1 (human)): 81.3%
residual activity (GSK3A (human)): 75.7%
residual activity (HIPK2 (human)): 102%
residual activity (INSRR (human)): 97.1%
residual activity [1]: 98.7%
residual activity (JAK2 JH1 JH2 (human)): 95.6%
residual activity (MAP2K2 (human)): 98.8%
residual activity (MAP3K11 (human)): 24.5%
residual activity (MAP3K2 (human)): 102%
residual activity (MAPK11 (human)): 95.7%
residual activity (MET (human)): 89.2%
residual activity (MLTK (human)): 34.3%
residual activity (MYLK2 (human)): 21.1%
residual activity (OXSR1 (human)): 105%
residual activity (PDGFRB (human)): 41.7%
residual activity (PIM2 (human)): 108%
residual activity (PRKCD (human)): 89.7%
residual activity (PRKG2 (human)): 80.6%
residual activity (PTK2 (human)): 109%
residual activity (RAF1 (human)): 104%
residual activity (RPS6KA2 KD1 KD2 (human)): 22.2%
residual activity (SGK3 (human)): 113%
residual activity (SRC (human)): 36.4%
residual activity (STK4 (human)): 33.7%
residual activity (TGFBR1 (human)): 93.4%
residual activity (YES1 (human)): 18.8%

O=C1NC(=O)c2c1c1c3ccccc3[nH]c1n1cncc21
residual activity (AKT3 (human)): 94.3%
residual activity (AURKA (human)): 34.8%
residual activity (AURKB (human)): 25.2%
residual activity (BLK (human)): 73.9%
residual activity (CAMKK1 (human)): 63.5%
residual activity (CDC42BPB (human)): 94.8%
residual activity (CDK5 CDK5R1 p25 (human)): 89.4%
residual activity (CSNK1A1 (human)): 51.6%
residual activity (CSNK1D (human)): 17.2%
residual activity (CSNK1E (human)): 18.9%
residual activity (DAPK1 (human)): 26.6%
residual activity (DMPK (human)): 101%
residual activity (DYRK1A (human)): 89.1%
residual activity (EPHB2 (human)): 86.1%
residual activity (FES (human)): 117%
residual activity (FGR (human)): 94.8%
residual activity (FLT1 (human)): 58%
residual activity (GSK3A (human)): 10.4%
residual activity (HIPK2 (human)): 94.4%
residual activity (INSRR (human)): 20.7%
residual activity [1]: 102%
residual activity (JAK2 JH1 JH2 (human)): 117%
residual activity (MAP2K2 (human)): 85.9%
residual activity (MAP3K11 (human)): 57.5%
residual activity (MAP3K2 (human)): 97.9%
residual activity (MAPK11 (human)): 94.5%
residual activity (MET (human)): 93.4%
residual activity (MLTK (human)): 78.7%
residual activity (MYLK2 (human)): 33.7%
residual activity (OXSR1 (human)): 97.2%
residual activity (PDGFRB (human)): 68.4%
residual activity (PIM2 (human)): 34.4%
residual activity (PRKCD (human)): 65%
residual activity (PRKG2 (human)): 64.1%
residual activity (PTK2 (human)): 56.9%
residual activity (RAF1 (human)): 108%
residual activity (RPS6KA2 KD1 KD2 (human)): 32.7%
residual activity (SGK3 (human)): 111%
residual activity (SRC (human)): 88.4%
residual activity (STK4 (human)): 42.7%
residual activity (TGFBR1 (human)): 96.3%
residual activity (YES1 (human)): 79.9%
